Data as given in the NIST ThermoML archive (doi:10.1021/je500804j).

Experiment: mn = molality of the nth substance listed, in mol/kg
Conditions: 101 kPa, Liquid, Alternating current cell with electrodes

CCCCCCCC[N+](C)(C)CCCCCCCCCCCC[N+](C)(C)CCCCCCCC.[Br-].[Br-] + O
Conditions | electrical conductivity [S/m]
308.15 K, m1 = 0.01941 | 0.3482
308.15 K, m1 = 0.02017 | 0.3578
308.15 K, m1 = 0.02093 | 0.3674
308.15 K, m1 = 0.02167 | 0.3751
308.15 K, m1 = 0.0224 | 0.3838
308.15 K, m1 = 0.02312 | 0.3913
308.15 K, m1 = 0.02383 | 0.4003
308.15 K, m1 = 0.02453 | 0.4069
308.15 K, m1 = 0.02522 | 0.4161
308.15 K, m1 = 0.02589 | 0.421
308.15 K, m1 = 0.02722 | 0.4336
308.15 K, m1 = 0.02787 | 0.4365
308.15 K, m1 = 0.02851 | 0.4424
308.15 K, m1 = 0.02956 | 0.4571
308.15 K, m1 = 0.03058 | 0.4621
308.15 K, m1 = 0.03158 | 0.4749
308.15 K, m1 = 0.03256 | 0.48
308.15 K, m1 = 0.03351 | 0.489
308.15 K, m1 = 0.03536 | 0.5074
308.15 K, m1 = 0.03625 | 0.5158
308.15 K, m1 = 0.03712 | 0.5223
308.15 K, m1 = 0.03798 | 0.527
308.15 K, m1 = 0.03964 | 0.541
308.15 K, m1 = 0.04123 | 0.5548
308.15 K, m1 = 0.04275 | 0.5671
308.15 K, m1 = 0.04422 | 0.5777
308.15 K, m1 = 0.04563 | 0.5885
308.15 K, m1 = 0.04699 | 0.5986
308.15 K, m1 = 0.04829 | 0.6068
308.15 K, m1 = 0.05077 | 0.6251
308.15 K, m1 = 0.05194 | 0.6322
313.15 K, m1 = 0.00357 | 0.06951
313.15 K, m1 = 0.00692 | 0.1517
313.15 K, m1 = 0.01009 | 0.2177
313.15 K, m1 = 0.01308 | 0.2687
313.15 K, m1 = 0.01591 | 0.3262
313.15 K, m1 = 0.01726 | 0.3465
313.15 K, m1 = 0.01859 | 0.3645
313.15 K, m1 = 0.01987 | 0.3859
313.15 K, m1 = 0.02113 | 0.4024
313.15 K, m1 = 0.02187 | 0.4121
313.15 K, m1 = 0.02259 | 0.4248
313.15 K, m1 = 0.02331 | 0.4317
313.15 K, m1 = 0.02401 | 0.4367
313.15 K, m1 = 0.02471 | 0.4441
313.15 K, m1 = 0.02539 | 0.4521
313.15 K, m1 = 0.02606 | 0.4597
313.15 K, m1 = 0.02673 | 0.467
313.15 K, m1 = 0.02803 | 0.4808
313.15 K, m1 = 0.02866 | 0.4878
313.15 K, m1 = 0.02929 | 0.4944
313.15 K, m1 = 0.03052 | 0.5075
313.15 K, m1 = 0.03112 | 0.5138
313.15 K, m1 = 0.03171 | 0.5209
313.15 K, m1 = 0.0323 | 0.5266
313.15 K, m1 = 0.03326 | 0.5361
313.15 K, m1 = 0.03419 | 0.5442
313.15 K, m1 = 0.03511 | 0.5535
313.15 K, m1 = 0.036 | 0.5625
313.15 K, m1 = 0.03688 | 0.5732
313.15 K, m1 = 0.03774 | 0.5794
313.15 K, m1 = 0.03858 | 0.5898
313.15 K, m1 = 0.0394 | 0.5956
313.15 K, m1 = 0.041 | 0.6125
313.15 K, m1 = 0.04253 | 0.6257
313.15 K, m1 = 0.044 | 0.637
313.15 K, m1 = 0.04541 | 0.6512
313.15 K, m1 = 0.04678 | 0.665
313.15 K, m1 = 0.04809 | 0.6744
313.15 K, m1 = 0.04935 | 0.6838
313.15 K, m1 = 0.05057 | 0.6958
313.15 K, m1 = 0.05175 | 0.7055
318.15 K, m1 = 0.00371 | 0.07542
318.15 K, m1 = 0.00722 | 0.164
318.15 K, m1 = 0.01052 | 0.245
318.15 K, m1 = 0.01364 | 0.3143
318.15 K, m1 = 0.01659 | 0.3687
318.15 K, m1 = 0.01801 | 0.3868
318.15 K, m1 = 0.01939 | 0.4168
318.15 K, m1 = 0.02073 | 0.43
318.15 K, m1 = 0.02204 | 0.4546
318.15 K, m1 = 0.0228 | 0.465
318.15 K, m1 = 0.02356 | 0.4755
318.15 K, m1 = 0.02431 | 0.4857
318.15 K, m1 = 0.02577 | 0.5063
318.15 K, m1 = 0.02648 | 0.5133
318.15 K, m1 = 0.02718 | 0.5232
318.15 K, m1 = 0.02787 | 0.5323
318.15 K, m1 = 0.02856 | 0.5407
318.15 K, m1 = 0.02923 | 0.5499
318.15 K, m1 = 0.02989 | 0.5578
318.15 K, m1 = 0.03119 | 0.5732
318.15 K, m1 = 0.03245 | 0.5881
318.15 K, m1 = 0.03307 | 0.5997
318.15 K, m1 = 0.03368 | 0.6044
318.15 K, m1 = 0.03428 | 0.6091
318.15 K, m1 = 0.03488 | 0.6155
318.15 K, m1 = 0.03546 | 0.6234
318.15 K, m1 = 0.03604 | 0.6307
318.15 K, m1 = 0.03661 | 0.6379
318.15 K, m1 = 0.03717 | 0.6434
318.15 K, m1 = 0.03828 | 0.655
318.15 K, m1 = 0.03918 | 0.6646
318.15 K, m1 = 0.04006 | 0.6728
318.15 K, m1 = 0.04092 | 0.681
318.15 K, m1 = 0.04176 | 0.6915
318.15 K, m1 = 0.04259 | 0.6986
318.15 K, m1 = 0.04419 | 0.7143
318.15 K, m1 = 0.04573 | 0.732
318.15 K, m1 = 0.04721 | 0.7463
318.15 K, m1 = 0.04863 | 0.7603
318.15 K, m1 = 0.05001 | 0.7719
318.15 K, m1 = 0.05133 | 0.7858
323.15 K, m1 = 0.00357 | 0.08471
323.15 K, m1 = 0.00693 | 0.1849
323.15 K, m1 = 0.01009 | 0.2444
323.15 K, m1 = 0.01308 | 0.3157
323.15 K, m1 = 0.01591 | 0.3898
323.15 K, m1 = 0.01859 | 0.436
323.15 K, m1 = 0.02113 | 0.483
323.15 K, m1 = 0.02355 | 0.5236
323.15 K, m1 = 0.02585 | 0.561
323.15 K, m1 = 0.02803 | 0.5895
323.15 K, m1 = 0.02909 | 0.6082
323.15 K, m1 = 0.03012 | 0.623
323.15 K, m1 = 0.03113 | 0.6393
323.15 K, m1 = 0.03211 | 0.6494
323.15 K, m1 = 0.03307 | 0.6638
323.15 K, m1 = 0.03401 | 0.6772
323.15 K, m1 = 0.03512 | 0.6913
323.15 K, m1 = 0.03566 | 0.6951
323.15 K, m1 = 0.03619 | 0.6993
323.15 K, m1 = 0.03671 | 0.7037
323.15 K, m1 = 0.03775 | 0.7171
323.15 K, m1 = 0.03825 | 0.7266
323.15 K, m1 = 0.03875 | 0.7317
323.15 K, m1 = 0.03925 | 0.7354
323.15 K, m1 = 0.03973 | 0.7413
323.15 K, m1 = 0.04069 | 0.7517
323.15 K, m1 = 0.04116 | 0.7566
323.15 K, m1 = 0.04162 | 0.7617
323.15 K, m1 = 0.04208 | 0.7694
323.15 K, m1 = 0.04254 | 0.7737
323.15 K, m1 = 0.04328 | 0.7801
323.15 K, m1 = 0.04401 | 0.7896
323.15 K, m1 = 0.04472 | 0.8
323.15 K, m1 = 0.04542 | 0.8049
323.15 K, m1 = 0.04611 | 0.8129
323.15 K, m1 = 0.04678 | 0.8211
323.15 K, m1 = 0.04745 | 0.831
323.15 K, m1 = 0.0481 | 0.8348
323.15 K, m1 = 0.04936 | 0.8479
323.15 K, m1 = 0.05058 | 0.8638
323.15 K, m1 = 0.05176 | 0.8724
